The text below walks through data of US20250270217A1, “IMIDAZ0[1,2-A]PYRIMIDINE-5(1 H)-ONES HAVING A COVALENT WARHEAD AT THE 3-POSITION AS WRN INHIBITORS” (Incyte Corporation, priority 2023, published 2025).

Data set [1] concerns WRN (aa S2-S1235) variants. The data set can be described thus: Helicase activity of WRN mutants (fluorescence-based DNA unwinding assay). Type of data set: biochemical. The conditions noted are these: for Ratio to WT: Table 9, helicase activity; for Observed Helicase Activity (AU/min): Table 9, helicase activity of WRN mutants. Here is the method: (§1) Point mutations were made in the His-tagged WRN construct used for biochemical characterization (aa S2-S1235). Cysteine 580 (Walker A motif), 727 (linker), 864 (Domain 2A) and 1041 (RQC domain) were each mutated to both Serine and Alanine using site directed mutagenesis, for a total of eight mutants. Purified proteins were assayed in both helicase and ATPase assays. Cys580 mutation to either Ser or Ala abolished all activity, consistent with Walker A motif cysteine function. Cys864 (D2) mutation to alanine and Cys1041 (RQC domain) had no significant impact on helicase or ATPase activity. Cys727 abolished helicase activity (Table 9), whether it was mutated to Ala or Ser. ATPase activity for Cys727 mutants was reduced but not abolished (Table 10). Table 9 is the panel of the nine variant WRN helicase proteins that were screen using a flourscence-based DNA unwinding assay with an increase in flourscence intensity indicating DNA unwinding. Table 10 is the panel of the nine variant WRN helicase proteins that were screened using ADP-Glo assay to measure DNA stimulated ATPase activity, with an increase in luminescence indicating ATP hydrolysis.

The test system of data set [2] is WRN (aa S2-S1235) variants. In words: ATPase activity of WRN mutants (ADP-Glo, DNA stimulated ATPase activity). Type of data set: biochemical. The conditions noted are these: for Ratio to WT: Table 10, ATPase activity; for Observed Helicase Activity (AU/min): Table 10, ATPase activity of WRN mutants. Here is the method: as §1

Regarding “2. C580S: His-tagged WRN construct (aa S2-S1235), Cysteine 580 (Walker A motif) mutated to Serine”, in data set [1], the “Ratio to WT” value was 0.00 and the “Observed Helicase Activity (AU/min)” value was found to be 0 AU/min. In data set [2], the “Ratio to WT” value was determined as 0.01 and the “Observed Helicase Activity (AU/min)” value came out at 0.8014 AU/min.

Consider “8. C1041S: His-tagged WRN construct (aa S2-S1235), Cysteine 1041 (RQC domain) mutated to Serine”, for which, in data set [1], the “Ratio to WT” value worked out at 0.62 and the “Observed Helicase Activity (AU/min)” value is given as 40.28 AU/min. Further, in data set [2], the “Ratio to WT” value is given as 0.59 and the “Observed Helicase Activity (AU/min)” value is listed as 45.74 AU/min.

As for “5. C864A: His-tagged WRN construct (aa S2-S1235), Cysteine 864 (Domain 2A) mutated to Alanine”, in data set [1], the “Ratio to WT” value was 0.94 and the “Observed Helicase Activity (AU/min)” value is on record as 60.75 AU/min. Moreover, in data set [2], the “Ratio to WT” value is 0.90 and the “Observed Helicase Activity (AU/min)” value was 70.52 AU/min.

In the case of “1. C580A: His-tagged WRN construct (aa S2-S1235), Cysteine 580 (Walker A motif) mutated to Alanine”, in data set [1], the “Ratio to WT” value is given as 0.02 and the “Observed Helicase Activity (AU/min)” value was determined as 1.04 AU/min. For the same substance, in data set [2], the “Ratio to WT” value is given as 0.03 and the “Observed Helicase Activity (AU/min)” value is reported as 2.548 AU/min.

In the case of “7. C1041A: His-tagged WRN construct (aa S2-S1235), Cysteine 1041 (RQC domain) mutated to Alanine”, in data set [1], the “Ratio to WT” value is on record as 0.93 and the “Observed Helicase Activity (AU/min)” value came out at 60.14 AU/min. Also, in data set [2], the “Ratio to WT” value was 0.85 and the “Observed Helicase Activity (AU/min)” value was 66.66 AU/min.

In the case of “6. C864S: His-tagged WRN construct (aa S2-S1235), Cysteine 864 (Domain 2A) mutated to Serine”, in data set [1], the “Ratio to WT” value is recorded as 0.44 and the “Observed Helicase Activity (AU/min)” value is reported as 28.49 AU/min. Also, in data set [2], the “Ratio to WT” value was 0.54 and the “Observed Helicase Activity (AU/min)” value was 42.02 AU/min.

Turning to “3. C727A: His-tagged WRN construct (aa S2-S1235), Cysteine 727 (linker) mutated to Alanine”, in data set [1], the “Ratio to WT” value is reported as 0.07 and the “Observed Helicase Activity (AU/min)” value is reported as 4.619 AU/min. In data set [2], the “Ratio to WT” value was 0.29 and the “Observed Helicase Activity (AU/min)” value is 22.65 AU/min.
